# In patent US10322110B2, “Imidazole-based antimicrobial agents” (priority 2014, dated 2019):
# Where two headings read alike, the source gives them in different places.
# What was measured:
# [1] = test system: vancomycin-resistant Staphylococcus aureus; assay: broth microdilution MIC assay,  MRSA (COL); format: cell-based; settings: read-out: MIC for the resistant strain
# [2] = test system: Bacillus subtilis (Marburg strain, ATCC6051); assay: microbe, parasite or virus in culture; format: cell-based; settings: ATCC6051, read-out: Antibacterial activity BS (Bacillus substilis)
# [3] = test system: Staphylococcus aureus MSSA (Newman); assay: broth microdilution MIC assay, Staphylococcus aureus MSSA (Newman); format: cell-based; settings: for MIC: Staphylococcus aureus
# [4] = test system: Staphylococcus aureus MRSA (COL); assay: broth microdilution MIC assay, Staphylococcus aureus MRSA (COL); format: cell-based; settings: Staphylococcus aureus, MRSA
# [5] = test system: Mycobacterium smegmatis (mc(2)155, ATCC700084); assay: broth microdilution MIC assay, Mycobacterium smegmatis; settings: MIC activity class
# [6] = test system: Human hepatocytes (HepaRG cells); assay: human cytotoxicity assay in vitro (CellTiter-Glo), hepatocytes; format: cell-based; settings: cytotoxicity class
# [7] = test system: Staphylococcus epidermidis (PCI 1200, ATCC12228); assay: broth microdilution MIC assay, Staphylococcus epidermidis; format: cell-based; settings: ATCC12228, read-out: Antibacterial activity SE (Staphylococcus epidermidis)
# [8] = test system: penicillin-, erythromycin- and tetracycline-resistant Streptococcus pneumoniae (ATCC 700677), ARSP; assay: microbe, parasite or virus in culture; format: cell-based; settings: ATCC700677, MIC activity class, read-out: Antibacterial activity ARSP (multi-drug resistant-SP)
# [9] = test system: Escherichia coli TolC mutant strain ΔtoIC (K12 b3035 TolC; JW5503); format: cell-based; settings: MIC activity class
# [10] = 24 h, read-out: Antibacterial activity Staphylococcus aureus (MSSA)
# [11] = read-out: Antibacterial activity MSSA (Staphylococcus aureus MSSA)
# [12] = read-out: Antibacterial activity MRSA (Staphylococcus aureus MRSA)
# [13] = MIC100 class score, broth microdilution, 24 h, read-out: Antibacterial activity Staphylococcus aureus (MRSA)
Structure (SMILES),MIC [1] [µg/mL],MIC [2] [µg/mL],"MIC [3, 10] [µg/mL]","MIC [3, 11] [µg/mL]","MIC [4, 12] [µg/mL]","MIC [4, 13] [µg/mL]",Antibacterial activity MS (Mycobacterium smegmatis) [5],cytotoxicity cell line H (hepatocytes) [6],MIC [7] [µg/mL],MIC [8] [µg/mL],Antibacterial activity EC Δ (Escherichia coli ΔtoIC) [9],"Antibacterial activity Staphylococcus aureus (MSSA) ([3]; MIC100 class score, broth microdilution, 24 h)"
"CN[C@H](CC(C)C)C(=O)N[C@H]1C(=O)N[C@@H](CC(N)=O)C(=O)N[C@H]2C(=O)N[C@H]3C(=O)N[C@H](C(=O)N[C@H](C(=O)O)c4cc(O)cc(O)c4-c4cc3ccc4O)[C@H](O)c3ccc(c(Cl)c3)Oc3cc2cc(c3O[C@@H]2O[C@H](CO)[C@@H](O)[C@H](O)[C@H]2O[C@H]2C[C@](C)(N)[C@H](O)[C@H](C)O2)Oc2ccc(cc2Cl)[C@H]1O [vancomycin, Vancomycin]",20,,,,,,,,,,,
Cc1nc(-c2ccc(-c3cccc(OC(F)(F)F)c3)o2)[nH]c1-c1ccccc1 [Compound 34],,3 to 10,1 to 3,1 to 3,1 to 3,1 to 3,2 (MIC100 of 11-201 μg/ml),2,20 to 50,< 1,,
CN(C)Cc1[nH]c(-c2ccc(-c3ccccc3C(F)(F)F)o2)nc1-c1ccccc1 [Compound 70],,20 to 50,20 to 50,20 to 50,20 to 50,20 to 50,,3,11 to 201,,3 (MIC100 of 3-10 μg/ml),
Cc1nc(-c2ccc(-c3ccc(Cl)cc3Cl)o2)[nH]c1-c1ccccc1 [Compound 1],,3 to 10,1 to 3,1 to 3,1 to 3,1 to 3,2 (MIC100 of 11-201 μg/ml),2,3 to 10,< 1,,
Cc1nc(-c2ccc(-c3cccc(OC(F)(F)F)c3)o2)[nH]c1-c1ccc(F)cc1 [Compound 37],,3 to 10,,3 to 10,3 to 10,,2 (MIC100 of 11-201 μg/ml),3,20 to 50,2 to 5,,3 (MIC100 of 3-10 μg/ml)
